Assay results as given in ChEMBL document CHEMBL3044941, “Synthesis and Structure-Activity Relationships of Dinotefuran Derivatives: Modification in the Tetrahydro-3-furylmethyl Part” (2004).

Experiments:
[1] = system: Nephotettix cincticeps; assay: Insecticidal activity against 1 to 3 day-old adult Nephotettix cincticeps (green rice leafhopper) infested in compound-treated rice seedlings assessed as mortality measured after 3 days; format: functional
[2] = system: Laodelphax striatellus; assay: Insecticidal activity against 1 to 3 day-old adult Laodelphax striatella (small brown planthopper) infested compound-treated rice seedlings assessed as mortality measured after 3 days; format: functional

CN/C(=C\[N+](=O)[O-])NCC1CCOC1 (configuration not stated)
LC70 [1]: 0.1 ppm | LC70 [2]: 0.1 ppm

CN/C(=N\[N+](=O)[O-])NCC1CCOC1C (configuration not stated)
LC70 [1]: >1000 ppm | LC70 [2]: >1000 ppm

CN/C(=N\[N+](=O)[O-])NCC1(C)CCOC1 (configuration not stated)
LC70 [1]: >1000 ppm | LC70 [2]: >1000 ppm

O=[N+]([O-])/C=C1\NCCCN1CC1CCOC1 (configuration not stated)
LC70 [1]: 0.1 ppm | LC70 [2]: 1 ppm

O=[N+]([O-])/N=C1\NCCCN1CC1CCOC1 (configuration not stated)
LC70 [1]: 0.1 ppm | LC70 [2]: 1 ppm

CC1(C)CC(CN2CCCN/C2=N\[N+](=O)[O-])CO1 (configuration not stated)
LC70 [1]: 1 ppm | LC70 [2]: 10 ppm

CN/C(=N\[N+](=O)[O-])NCC1COC(C)(C)C1 (configuration not stated)
LC70 [1]: 1 ppm | LC70 [2]: 100 ppm

CN/C(=C\[N+](=O)[O-])NCC1COC(C)(C)C1 (configuration not stated)
LC70 [1]: 1 ppm | LC70 [2]: 10 ppm

CC1(C)CC(CN2CCCN/C2=C\[N+](=O)[O-])CO1 (configuration not stated)
LC70 [1]: 1 ppm | LC70 [2]: 1 ppm

CN/C(=N\[N+](=O)[O-])NCC1COC(C)C1 (mixture of isomers)
LC70 [1]: 1 ppm | LC70 [2]: 10 ppm

CCC1COCC1CN/C(=N/[N+](=O)[O-])NC (mixture of isomers)
LC70 [1]: 100 ppm | LC70 [2]: >1000 ppm

CN/C(=N\[N+](=O)[O-])NCC1COCC1C (mixture of isomers)
LC70 [1]: 1 ppm | LC70 [2]: 10 ppm

CCC1COCC1CN/C(=C/[N+](=O)[O-])NC (mixture of isomers)
LC70 [1]: 100 ppm | LC70 [2]: >1000 ppm

CC1COCC1CN1CCCN/C1=N\[N+](=O)[O-] (mixture of isomers)
LC70 [1]: 0.1 ppm | LC70 [2]: 10 ppm

CC1CC(CN2CCCN/C2=N\[N+](=O)[O-])CO1 (mixture of isomers)
LC70 [1]: 0.1 ppm | LC70 [2]: 1 ppm

CN/C(=N\[N+](=O)[O-])NCC1CCOC1OC (mixture of isomers)
LC70 [1]: >1000 ppm | LC70 [2]: >1000 ppm

CN/C(=N\[N+](=O)[O-])NCC1(C)COCC1C (mixture of isomers)
LC70 [1]: >1000 ppm | LC70 [2]: >1000 ppm

CN/C(=N\[N+](=O)[O-])NCC1COC(c2ccccc2)C1 (mixture of isomers)
LC70 [1]: >1000 ppm | LC70 [2]: >1000 ppm

CN/C(=C\[N+](=O)[O-])NCC1CCOC1C (mixture of isomers)
LC70 [1]: >1000 ppm | LC70 [2]: >1000 ppm

CN/C(=C\[N+](=O)[O-])NCC1CCOC1OC (mixture of isomers)
LC70 [1]: >1000 ppm | LC70 [2]: >1000 ppm

CN/C(=C\[N+](=O)[O-])NCC1COCC1C (mixture of isomers)
LC70 [1]: 1 ppm | LC70 [2]: 1 ppm

CN/C(=C\[N+](=O)[O-])NCC1COC(C)C1 (mixture of isomers)
LC70 [1]: 1 ppm | LC70 [2]: 10 ppm

CC1COCC1CN1CCCN/C1=C\[N+](=O)[O-] (mixture of isomers)
LC70 [1]: 0.1 ppm | LC70 [2]: 1 ppm

CCC1COCC1CN1CCCN/C1=C\[N+](=O)[O-] (mixture of isomers)
LC70 [1]: >1000 ppm | LC70 [2]: 100 ppm

CC1CC(CN2CCCN/C2=C\[N+](=O)[O-])CO1 (mixture of isomers)
LC70 [1]: 1 ppm | LC70 [2]: 1 ppm

CN/C(=N/CC1CCOC1)N[N+](=O)[O-] (configuration not stated) [DINOTEFURAN]
LC70 [1]: 0.1 ppm | LC70 [2]: 0.1 ppm
